Key:
[1] = pH of the acid forming the acid component (pH meter, 20°C); type: physicochemical; settings: organic acid 1.0 g in purified water 1.0 L, inorganic acid 0.1-mol/L aqueous solution, for a salt, pH of the acid forming it
Description: No particular limitation is imposed on the acidity of the acid forming the acid component (B), which is specifically the pH of the acid forming the acid component (B) at 20°C, is for example, 1 to 6. […] When the acid component (B) is an inorganic acid, the pH corresponds to a value measured by use of a […] aqueous solution. In the case of a metal salt of the acid, the pH corresponds to the pH of the acid forming the metal salt thereof.
The pH of a liquid prepared by mixing an acid (1.0 g) and purified water (1.0 L) was measured at 20°C by means of a pH meter (product of HORIBA, Ltd.). In the case of an organic acid salt, the pH of the acid forming the salt was measured.
The pH of a 0.1-mol/L aqueous solution of the acid employed was measured at 20°C in the same manner as employed above.

[2] = physchem
Description: The acid component (B) preferably has high solubility in a good solvent for the modified conjugated diene-based polymer (A).
An acid or a metal salt thereof (1.0 g) was added to cyclohexane (1.0 L), and the system was tightly closed. The contents were mixed at 25°C for 5 minutes. The resultant liquid mixture was allowed to stand for 10 minutes, and then the state of the liquid mixture was visually observed.

For `Cl` [b-3, hydrochloric acid], which pH [1] is on record?
The pH was 1.

Which pH [1] does the source give for `O=C(O)c1ccccc1C(=O)O` [b-2, phthalic acid] here?
The pH was 4.

What about the solubility at 5 min ([2]; 25 °C, organic solvent or mixture, thermodynamic from solid) of the same compound?
Its solubility at 5 min is no less than 1000 µg/mL.

With `CCCCC(CC)C(=O)O` (centres unmarked) [b-1, 2-ethylhexanonic acid] as the compound, how does the pH [1] read?
The pH was 3.

For `CCCCC(CC)COP(=O)(O)OCC(CC)CCCC` (centres unmarked) [b-4, bis(2-ethylhexyl) phosphate], which “solubility in cyclohexane at 25°C” value ([2]; 1.0 g in 1.0 L cyclohexane, mixed 5 minutes, stood 10 minutes, visual) is on record?
Its value is no less than 1000 µg/mL.
